Laboratory results taken from US10130590B2, “Methods of treating cancer with atovaquone-related compounds” (DANA-FARBER CANCER INSTITUTE, INC., priority 2013, dated 2018).

Legend:
mTOR pathway = assay: Western blot of S6 phosphorylation in TSC2 or REDD1 knockout MEFs; format: cell-based, mouse; settings: 25 μM, 2.5 hours
Procedure: Mouse embryonic fibroblasts (MEFs) were cultured in DMEM+10% FBS. TSC2-null (see, Zhang et al. J Clin Invest. 2003; 112(8):1223-1233) and REDD1-null (see, Sofer et al. Mol. Cell. Biol. July 2005 vol. 25 no. 14 5834-5845) MEFs, along with MEFs from the littermate controls, were kind gifts from Dr. John Blenis and Dr. Leif Ellisen, respectively. HEL (see, Iwama et al. Mol. Cell. Biol. June 1999 vol. 19 no. 6 3940-3950) was a kind gift of Dr. Daniel G. Tenen and grown in RPMI-1640+10% FBS. OCI-AML2 and OCI-AML3 (see, Grunberger et al. Blood Dec. 1, 2003 vol. 102 no. 12 4153-4158), and MOLM-13 (German Collection of Microorganisms and Cell Cultures (DSMZ, Braunschweig, Germany)) were kind gifts of Dr. James D. Griffin and grown in RPMI-1640+10% FBS. MM.1S (ATCC) was a kind gift of Dr. Kenneth C. Anderson and grown in RPMI-1640+10% FBS. SET2 (see, Koppikar et al. Nature 489, 155-159 (6 Sep. 2012)) was a kind gift of Dr. Ross L. Levine and grown in RPMI-1640+10% FBS. HL60 (ATCC) was a kind gift of Dr. James D. Griffin and grown in RPMI-1640+10% FBS. […] Molecular Pharmacology 78(5):903-908; and Walker S R, et al. (2009) Reciprocal effects of STAT5 and STAT3 in breast cancer. Molecular Cancer Research: MCR 7(6):966-976). Peripheral blood mononuclear cells (PBMCs) were isolated from healthy donors by Ficoll density gradient centrifugation and maintained in RPMI-1640+10% FBS. […]

K562 and U266 cells = assay: Gene expression microarrays and qRT-PCR for atovaquone-induced genes; format: cell-based
Procedure: Gene expression was analyzed in triplicate, normalized by 18S rRNA, and expressed as mean±SEM. For gene expression microarrays, RNA was isolated by Trizol, purified further on RNeasy columns, and profiled using Affymetrix Human Gene 1.0 ST arrays (Affymetrix). Results were deposited under GEO Accession: GSE46575.
To discover the gene whose induction by atovaquone was responsible for mTOR inhibition, gene expression microarrays were performed in K562 and U266 cells. It was reasoned that induction of the causative factor must be common to all cell lines in which atovaquone inhibits the mTOR pathway. […] Of these, REDD1 is a known negative regulator of mTOR, whose activity is dependent on the TSC1/2-complex.

[1] = tested on: unfolded protein response (UPR); assay: Other UPR branches: XBP1 splicing, ATF6 cleavage, UPR target genes; format: cell-based
Procedure: Total RNA was reverse transcribed using random hexamers and assayed by qRT-PCR as previously described (see, Grivennikov S I, Greten F R, & Karin M (2010) Immunity, inflammation, and cancer. Cell 140(6):883-899).
In asking how atovaquone induces REDD1, a possible role for ATF4, which regulates REDD1 expression was considered. ATF4 is regulated mainly at the level of translation and is induced upon phosphorylation of eIF2α. […] K562 and AML2 cells, which lack STAT3 activation, were treated with rapamycin for 72 hours. […] For these reasons, it was hypothesized that atovaquone induces eIF2α phosphorylation, with a resulting increase in ATF4 protein and signaling. U266, K562, and SKBR3 cells were treated with atovaquone (20, 20, 25 μM respectively). […] The phospho-eIF2α/ATF4 pathway represents one branch of the UPR, whose other branches consist of ATF6 cleavage and IRE1-mediated XBP1 splicing. […] Thus, atovaquone selectively activates the phospho-eIF2α/ATF4 branch of the UPR. […] Consequently, atovaquone inhibition of STAT3 is not secondary to UPR activation.

U266 cells = assay: Viability of U266 cells grown in patient serum; format: cell-based, human; settings: serum approximately 100 days following HSCT; compared to serum of patients receiving TMP-SMX; 4 days
Procedure: FIG. 43 contains a dot plot quantifying viability of U266 cancer cells grown for 4 days in serum from patients taking trimethoprim/sulfamethoxazole (TMP/SMX) or atovaquone; the indicated p-value was determined using the two-sample t-test.
The patient population consisted of AML patients treated with HSCT at the Dana-Farber Cancer Institute and who survived at least 150 days after transplant without relapse. Patients treated with atovaquone for at least 100 days within the 150-day period were classified as “high atovaquone” exposure, while the remaining patients were classified as “low atovaquone” exposure. […] To further investigate the anti-cancer activity of atovaquone in patients, serum samples were collected from patients approximately 100 days following HSCT who were being treated with either TMP-SMX or atovaquone. […] Atovaquone is a colored compound, and its presence in patient plasma is visibly noticeable.

## O=C1C(O)=C([C@H]2CC[C@H](c3ccc(Cl)cc3)CC2)C(=O)c2ccccc21 [atovaquone, trans-2-[4-(4-chlorophenyl)cyclohexyl]-3-hydroxy-1,4-naphthalenedione]
mTOR pathway
  S6 phosphorylation in MEFs with knockout of TSC2 or REDD1: no effect on S6 phosphorylation
K562 and U266 cells
  REDD1 expression: inducing the expression of REDD1
[1]
  levels of BiP: no effect on levels of BiP
[1]; SKBR3, K562, U266, 25, 20, 20 μM
  ATF6 cleavage: did not induce
[1]; U266, K562, SKBR3, 20, 20, 25 μM, 6 hours
  spliced XBP1: did not induce spliced XBP1
[1]; U266, K562, SKBR3, 6 hours, in contrast to tunicamycin and thapsigargin
  UPR target gene expression: did not induce any UPR target genes other than those downstream of ATF4
U266 cells
  viability of U266 cells in serum from treated patients: reduced the viability of U266 cells
